Data published in patent US20250195590A1, “PHAGE AND ALLICIN COMPOSITION FOR INFECTION TREATMENT” (GUANGZHOU MEDICAL UNIVERSITY, priority 2023, published 2025).

Columns and labels:
[1] = tested on: Pseudomonas aeruginosa host bacteria; assay: Drug resistance of host bacteria; assay type: cell-based
Pseudomonas aeruginosa [2] = assay: Measurement of the minimum inhibitory concentration (micro broth dilution method); assay type: cell-based; conditions: allicin alone, preliminary experiment, FIG. 1
Experimental: (§1) The allicin is diluted to 7.5 mg/mL, 3.75 mg/mL, 0.375 mg/mL, 0.0375 mg/mL, 0.00375 mg/mL and 0.000375 mg/mL respectively, and the phage is diluted to 3×10^4 pfu/mL, 3×10^3 pfu/mL, 3×10^2 pfu/ml, and 3×10^1 pfu/ml respectively, and the host bacteria are diluted to 3×10^5 cfu/mL; allicin, phage, and host bacteria are aspirated 50 μL each and added into each well of the 96-well plate, then the OD600 value is measured, the OD600 value is measured again after overnight shaker incubation at 37° C. and 220 rpm, and the absorbance change value is calculated to determine the inhibition effect on the bacteria.
After the experiment, the experimental results are shown in FIG. 2, and the MIC of phage is 1×10^3 pfu/mL.

Pseudomonas aeruginosa [3] = assay: Bacteriostasis effect of phage in combination with allicin (combination experiment, OD600, FIC index); assay type: cell-based
Experimental: as §1
In the combination experiment, the bacteriostatic effect of allicin in different concentrations (i.e. allicin alone) is calculated and analyzed when the phage concentration is 0 pfu/mL.
In the combination experiment, the bacteriostatic effect of phages with different concentrations (that is, phages alone) is calculated and analyzed when the concentration of allicin is 0 μg/mL.
Different concentrations of allicin and phage are mixed in a 96-well plate by broth dilution method, and the OD600 value is measured. After overnight shaking table culture at 37° C. and 220 rpm, the OD600 value is measured again, and the chart is drawn.
Judging the combination effect according to the fractional inhibitory concentration (FIC) index^[6]: FIC=MIC (in combination with group A)/MIC (group A used alone)+MIC (in combination with group B)/MIC (group B used alone).
FIC index interpretation criteria: when the FIC index is less than 0.5, the two drugs are synergistic; when the FIC index is 0.5-1, the two drugs are mutually additive; when the FIC index is greater than 1 and less than 2, the two drugs are unrelated; when the FIC index is greater than 2, the two drugs are antagonistic.

[4] = tested on: Pseudomonas aeruginosa phage vB_PaeP_GZMU_A1002; assay: Effect of allicin on phage potency; conditions: incubated 37° C. 3 h, paired sample T test, 0.05 level, FIG. 3
Experimental: The solution of Pseudomonas aeruginosa phage vB_PaeP_GZMU_A1002 is diluted to a certain extent, and 100 μL of the diluted phage is mixed with 100 μL of the host bacteria and incubated at 37° C. for 15 min. The incubation solution is mixed with 0.7% semisolid LB agar, spread evenly on top of 1.5% solid LB agar spread on a Petri dish in advance, and cultured in a constant temperature incubator at 37° C. for 8 h or overnight. After the culture, a number of light-transmitting plaques may be seen in the Petri dish. A number of light-transmissive phage spots are visible in the petri dish after incubation, and the optimal view is selected to have 30-300 phage spots in the field of view, and the potency is calculated as potency=(10×number of phage spots)/dilution.
The Pseudomonas aeruginosa phage vB_PaeP_GZMU_A1002 is diluted to 10-8, and 100 μL of phage is mixed with 100 μL of allicin. At the same time, 100 μL of phage is mixed with 100 μL of LB as the control group, which is repeated in parallel for three times, mixed and incubated at 37° C. for 3 h, and then the potency is measured.
In this embodiment, paired sample T test is used to determine whether allicin has an effect on phage titer.

NCC[C@H](O)C(=O)N[C@@H]1C[C@H](N)[C@@H](O[C@H]2O[C@H](CN)[C@@H](O)[C@H](O)[C@H]2O)[C@H](O)[C@H]1O[C@H]1O[C@H](CO)[C@@H](O)[C@H](N)[C@H]1O [Amikacin]
Resistant: Drug resistance of host bacteria ([1]; strain P. aeruginosa′-5)

C[C@H]1[C@H](NC(=O)/C(=N\OC(C)(C)C(=O)O)c2csc(N)n2)C(=O)N1S(=O)(=O)O [Aztreonam]
Resistant: Drug resistance of host bacteria ([1]; strain B- P. aeruginosa-029) | Drug resistance of host bacteria ([1]; strain B- P. aeruginosa-037) | Drug resistance of host bacteria ([1]; strain P. aeruginosa-2 (r74)) | Drug resistance of host bacteria ([1]; strain P. aeruginosa-4) | Drug resistance of host bacteria ([1]; strain P. aeruginosa-13) | Drug resistance of host bacteria ([1]; strain P. aeruginosa-14) | Drug resistance of host bacteria ([1]; strain P. aeruginosa-22) | Drug resistance of host bacteria ([1]; strain P. aeruginosa-25) | Drug resistance of host bacteria ([1]; strain P. aeruginosa-26) | Drug resistance of host bacteria ([1]; strain P. aeruginosa-27) | Drug resistance of host bacteria ([1]; strain P. aeruginosa-30) | Drug resistance of host bacteria ([1]; strain P. aeruginosa′-3) | Drug resistance of host bacteria ([1]; strain P. aeruginosa′-4) | Drug resistance of host bacteria ([1]; strain P. aeruginosa′-5) | Drug resistance of host bacteria ([1]; strain P. aeruginosa′-10)

CO/N=C(\C(=O)N[C@@H]1C(=O)N2C(C(=O)[O-])=C(C[N+]3(C)CCCC3)CS[C@H]12)c1csc(N)n1 [Cefepime]
Resistant: Drug resistance of host bacteria ([1]; strain B- P. aeruginosa-029) | Drug resistance of host bacteria ([1]; strain P. aeruginosa-2 (r74)) | Drug resistance of host bacteria ([1]; strain P. aeruginosa-24) | Drug resistance of host bacteria ([1]; strain P. aeruginosa-30) | Drug resistance of host bacteria ([1]; strain P. aeruginosa′-5)

O=C(O)c1cn(C2CC2)c2cc(N3CCNCC3)c(F)cc2c1=O [Ciprofloxacin]
Resistant: Drug resistance of host bacteria ([1]; strain B- P. aeruginosa-029) | Drug resistance of host bacteria ([1]; strain B- P. aeruginosa-035) | Drug resistance of host bacteria ([1]; strain B- P. aeruginosa-037) | Drug resistance of host bacteria ([1]; strain B- P. aeruginosa-041) | Drug resistance of host bacteria ([1]; strain B- P. aeruginosa-042) | Drug resistance of host bacteria ([1]; strain B-P. AERUGINOSA-027) | Drug resistance of host bacteria ([1]; strain P. aeruginosa-25) | Drug resistance of host bacteria ([1]; strain P. aeruginosa-29)

NC[C@H]1O[C@H](O[C@H]2[C@H](O)[C@@H](O[C@H]3O[C@H](CO)[C@@H](O)[C@H](N)[C@H]3O)[C@H](N)C[C@@H]2N)[C@H](N)C[C@@H]1O [Tobramycin]
Resistant: Drug resistance of host bacteria ([1]; strain P. aeruginosa-29)

C=CCS[S+]([O-])CC=C (centres unmarked) [allicin]
1250 mg/L: MIC (Pseudomonas aeruginosa [2]) | MIC (Pseudomonas aeruginosa [3]; Pseudomonas aeruginosa, combination experiment, phage concentration 0 pfu/mL, FIG. 4, read-out: MIC of allicin alone)
about 0: OD600 (Pseudomonas aeruginosa [3]; allicin alone 1.25 mg/mL, FIG. 4)
no negative effect: effect of allicin on phage potency (titer) [4]
three orders of magnitude: decrease of amount when used in combination as compared to singly (Pseudomonas aeruginosa [3]; allicin with phage)
1/1000: optimal concentration for combination, allicin (Pseudomonas aeruginosa [3]; with 1×10^2 pfu/mL phage, FIG. 6)
1.25 µg/mL: best combination dosage, allicin (Pseudomonas aeruginosa [3]; in combination with 1×10^2 pfu/mL phage, FIG. 6)

Piperacillin/Tazobactam
Resistant: Drug resistance of host bacteria ([1]; strain B- P. aeruginosa-029) | Drug resistance of host bacteria ([1]; strain B- P. aeruginosa-037) | Drug resistance of host bacteria ([1]; strain P. aeruginosa-2 (r74)) | Drug resistance of host bacteria ([1]; strain P. aeruginosa-14) | Drug resistance of host bacteria ([1]; strain P. aeruginosa-23) | Drug resistance of host bacteria ([1]; strain P. aeruginosa-26) | Drug resistance of host bacteria ([1]; strain P. aeruginosa-30) | Drug resistance of host bacteria ([1]; strain P. aeruginosa-32) | Drug resistance of host bacteria ([1]; strain P. aeruginosa′-3) | Drug resistance of host bacteria ([1]; strain P. aeruginosa′-4) | Drug resistance of host bacteria ([1]; strain P. aeruginosa′-5) | Drug resistance of host bacteria ([1]; strain P. aeruginosa′-6) | Drug resistance of host bacteria ([1]; strain P. aeruginosa′-15)
